Test results reported in PMC7173930, “EAT-18 is an essential auxiliary protein interacting with the non-alpha nAChR subunit EAT-2 to form a functional receptor” (PLoS Pathogens, 2020).

Key:
[1] = target: Asu-EAT-2 nAChR (Ascaris suum, UniProt F1L9Y6); experiment: cell-based; type: cell-based, A. suum; conditions: read-out: current response normalized to the control 100 μM ACh current
[2] = target: T1, Cel-EAT-2 + Asu-EAT-18 + Asu-RIC-3 (Caenorhabditis elegans, UniProt Q9U298)
[3] = target: T2, Cel-EAT-2 and Cel-EAT-18c nAChR (Caenorhabditis elegans, UniProt Q9U298); experiment: Two-electrode voltage-clamp of Cel-EAT-2 + Cel-EAT-18c nAChR expressed in Xenopus oocytes; type: cell-based
T2 sequence (Q9U298 22-474): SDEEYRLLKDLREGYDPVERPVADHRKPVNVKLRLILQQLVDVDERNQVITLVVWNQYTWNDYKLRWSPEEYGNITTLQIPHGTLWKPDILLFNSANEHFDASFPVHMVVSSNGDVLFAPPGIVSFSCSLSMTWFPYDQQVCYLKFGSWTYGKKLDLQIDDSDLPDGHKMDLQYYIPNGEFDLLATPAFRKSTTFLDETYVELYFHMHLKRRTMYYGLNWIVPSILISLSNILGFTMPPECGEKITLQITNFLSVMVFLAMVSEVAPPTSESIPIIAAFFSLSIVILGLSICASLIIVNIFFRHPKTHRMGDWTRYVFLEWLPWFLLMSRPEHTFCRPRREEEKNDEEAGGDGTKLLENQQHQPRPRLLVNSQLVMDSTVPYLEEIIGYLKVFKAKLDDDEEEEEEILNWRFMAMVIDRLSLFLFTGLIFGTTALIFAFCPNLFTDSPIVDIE

[4] = target: T1, Cel-EAT-2 + Asu-EAT-18 + Asu-RIC-3; experiment: cell-based
[5] = tested on: nAChRs expressed in the pharynx of A. suum; experiment: tissue or blood; type: cell-based
Method: A. suum pharyngeal dissections and electrophysiology recordings were adapted from Martin [49]. Briefly, pharynx was dissected out from the head region of the worm and mounted on Sylgard (Sigma-Aldrich Inc., USA)—lined in a double jacketed bath chamber maintained at 28°C. The muscle layer surrounding the anterior 3rd of the pharynx was preserved for anchoring. The intestine attached to the posterior end of the pharynx was used for stretching and pinning down. The preparation was continuously perfused with calcium-free Ascaris Perienteric Fluid-Ringer (calcium-free APF-Ringer) composition (mM): NaCl 23, Na-acetate 110, KCl 24, MgCl2 11, glucose 11, and HEPES 5; NaOH or acetic acid was added to adjust the pH to 7.6. […] The rate of localized perfusion was 3.5–4 ml min^−1 through a 20-gauge needle, which was placed directly above the recording region of the pharynx. […] We used 3 M potassium acetate in our micropipettes to get the final resistances of 4–7 MΩ for the voltage sensing and 0.5–1 MΩ for the current injecting electrode for current-clamp recordings. The current-injecting electrode injected hyperpolarizing step currents of −1000 nA for 500 ms at 0.3 Hz.
We constructed the sigmoidal concentration-response plots by fitting the data by nonlinear regression to determine the pEC50 and the maximal response (Rmax). Extra sum of squares F-test was used to test statistical differences between pEC50, slope, and maximal response. The significance levels were set to P<0.05.
In applications containing arecoline and pilocarpine, we used mecamylamine, a nAChR antagonist (30µM) to inhibit nAChRs and to allow only mAChR activation.

Asu-EAT-2 nAChR, sequence (F1L9Y6 entry or part of it): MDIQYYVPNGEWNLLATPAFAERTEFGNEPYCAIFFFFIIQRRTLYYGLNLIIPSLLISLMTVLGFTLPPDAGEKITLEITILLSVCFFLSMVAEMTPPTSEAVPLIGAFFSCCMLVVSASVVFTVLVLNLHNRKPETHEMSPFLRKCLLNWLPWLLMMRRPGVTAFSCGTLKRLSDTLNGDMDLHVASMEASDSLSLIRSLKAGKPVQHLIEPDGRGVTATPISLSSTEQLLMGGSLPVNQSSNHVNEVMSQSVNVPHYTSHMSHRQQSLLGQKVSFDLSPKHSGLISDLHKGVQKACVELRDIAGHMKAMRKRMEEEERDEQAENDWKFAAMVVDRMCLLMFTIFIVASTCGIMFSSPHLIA
Asu-EAT-2 nAChR, sequence (F1L1D9 entry or part of it, further chain): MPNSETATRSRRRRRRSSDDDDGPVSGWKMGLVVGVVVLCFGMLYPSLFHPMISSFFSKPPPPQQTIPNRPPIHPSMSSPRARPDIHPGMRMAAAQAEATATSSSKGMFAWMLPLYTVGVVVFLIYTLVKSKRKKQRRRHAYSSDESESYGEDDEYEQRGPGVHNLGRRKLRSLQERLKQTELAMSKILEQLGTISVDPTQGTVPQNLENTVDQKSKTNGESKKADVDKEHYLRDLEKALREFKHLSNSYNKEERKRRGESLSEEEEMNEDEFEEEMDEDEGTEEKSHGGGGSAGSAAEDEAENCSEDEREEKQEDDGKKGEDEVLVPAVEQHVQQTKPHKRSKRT

CN1CCC[C@H]1c1cccnc1 [nicotine]
Emax [1]: 105 ± 5.7% | Imax [2]: 96.5 ± 2.3% | EC50 [3]: 63.1 µM | Hill slope (nH) [3]: 2.4±0.4 | Imax [3]: 54.6 ± 2.6% | current response normalized to the control 100 μM ACh current (Imax) [3]: 55 ± 8.0% | Emax at 100 µM ([3]; read-out: current response normalized to the control 100 μM ACh current (Imax)): 55 ± 8% | EC50 [4]: 18.7 µM | Hill slope (nH) [5]: 1.7±0.6 | maximal response [5]: 79.3 ± 4.3 μS | Emax ([5]; Ascaris suum, read-out: % change in membrane conductance (δG) normalized to the ACh δG): 92 ± 6.2% | EC50 ([5]; Ascaris suum, read-out: pEC50 (converted)): 10 µM
